Data reported in patent US4434162A, “Phosphonic acid ester, pharmaceutical compositions containing the same and method of using the same” (Kanebo, Ltd., priority 1982, dated 1984).
Entries after “also recorded” stand apart in the source; their conditions may differ.

How the values were obtained:
dogs = assay: Increase in coronary blood flow upon intravenous administration into dogs; type: in vivo, dog; conditions: for Increase in coronary blood flow (Δ% ± standard error): anaesthetized dogs, intravenous (femoral vein), dose 0.1 mg/kg, circumflex branch of left coronary; for activity in increasing coronary blood flow (in words): comparison with other esters
Method: (b) Intravenous administration into dogs.
Increase in coronary blood flow upon intravenous administration of a test compound into dogs was tested. Compounds tested were 4-(benzothiazol-2-yl)benzylphosphonic acid ethyl isopropyl ester and, as a control, diltiazem, 4-(benzothiazol-2-yl)benzylphosphonic acid diethyl ester and 2-(benzothiazol-2-yl)-5-picolinylphosphonic acid diethyl ester.
Dogs weighing 10 to 13 kg were anaesthetized with pentobarbital sodium (35 mg/kg, intraperitoneal) and, under supportive respiration, a thoractomy was performed by removing the fourth left rib. The pericardial membrane was then incised to expose the heart. The test compound was dissolved in 50% aqueous ethanol and injected into the femoral vein. The blood flow through circumflex branch of left coronary was measured before and after the administration of drugs with an electromagnetic flowmeter (Nihon Kohden, MF-26).

[1] = Acute toxicity test in mice; conditions: mouse, in vivo, ip; male ddY mice, intraperitoneal; deaths within 72 hours, method of Weil
Method: (§1) An acute toxicity test was carried out in male ddY mice (in groups of 5 animals, body weights 20.congruent.2 g) by the intraperitoneal administration of a test compound. The LD50 values were calculated by the method of Weil based on the number of deaths within 72 hours.

[2] = tested on: isolated guinea pig heart; assay: Action on coronary flow of the isolated guinea pig heart (Langendorff); conditions: Cavia porcellus, 100 γ/ml in propylene glycol, 0.1 ml infused at 0.1 ml/min, read-out: Increase in coronary flow (Δ% ± standard error)
Method: (a) Action on the isolated guinea pig heart.
Male guinea-pigs with body weights from 400 to 500 g were slaughtered and promptly thoractomized. After the ascending aorta was cannulated, the heart was enucleated. By the method of Langendorff, this isolated heart was perfused with the Krebs-Henseleit fluid oxygenated with a gaseous mixture of 95% O2 and 5% CO2 at the fluid temperature of 34±1° C. and the perfusion pressure of 60 cm H2 O, and the test compound was infused. The coronary flows before and after infusion were measured and the percent gain in coronary flow was obtained. The coronary flow was measured with a square-wave electromagnetic flowmeter (Nihon Kohden, MF-26) with an extracorporeal probe (Nihon Kohden, FE) set at the top of the cannula and recorded with a multipurpose polygraph (Nihon Kohden, RM-85). The test compound was dissolved in propylene glycol to a concentration of 100 γ/ml and 0.1 ml of the solution was infused at the rate of 0.1 ml/min. For reference, the corresponding data on diltiazem is also shown.

male ddY mice = assay: Acute toxicity test in mice; conditions: mouse, in vivo; listed as compound of the invention
Method: as §1

## CCOP(=O)(Cc1ccc(-c2nc3ccccc3s2)cc1)OCC [4-(benzothiazol-2-yl)benzylphosphonic acid diethyl ester, reference compound]
dogs
  Increase in coronary blood flow (Δ% ± standard error): 82.2 ± 5.0 Δ%

## CCOP(=O)(Cc1ccc(-c2nc3ccccc3s2)nc1)OCC [2-(benzothiazol-2-yl)-5-picolinylphosphonic acid diethyl ester, reference compound]
dogs
  Increase in coronary blood flow (Δ% ± standard error): 83.0 ± 12.3 Δ%

## COc1ccc([C@@H]2Sc3ccccc3N(CCN(C)C)C(=O)[C@@H]2OC(C)=O)cc1 [Diltiazem, diltiazem, reference compound]
[1]
  LD50 at 72 h: 177 mg/kg
[2]
  activation at 100 µg/mL, 0.01 mg: 66 ± 7.1%
dogs
  Increase in coronary blood flow (Δ% ± standard error): 105.6 ± 14.1 Δ%

## CCOP(=O)(Cc1ccc(-c2nc3ccccc3s2)cc1)OC(C)C (centres unmarked) [4-(benzothiazol-2-yl)benzylphosphonic acid isopropyl ethyl ester]
[1]
  LD50 at 72 h: 1790 mg/kg
Male ddY mice
  acute toxicity (in words): low acute toxicity; also recorded: lower acute toxicity than such compound
[2]
  activation at 100 µg/mL, 0.01 mg: 76.9 ± 24.4%
dogs
  Increase in coronary blood flow (Δ% ± standard error): 75.3 ± 2.9 Δ%
dogs; listed as asymmetric type ester of the invention
  activity in increasing coronary blood flow (in words): high activity in increasing coronary blood flow in comparison with other asymmetric and cyclic esters of this type
dogs; listed as compound of the invention
  activity in increasing coronary blood flow (in words): somewhat lower in its activity of increasing coronary blood flow than the corresponding diethyl ester compound
